Reference: patent US11091478B2 (Fochon Pharmaceuticals, Ltd., priority 2017, dated 2021)

Assays:
DOHH2 cells = assay: Cell proliferation assay (MTS), DOHH2 cells, 120 h; assay type: cell-based; details: Homo sapiens, DOHH-2, 120 h
How it was run: (§1)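 Proliferation was scored by MTS (2 h, then SDS stop, A490 with 650 nm reference) and IC50 derived. Compound ran at nine final concentrations from 1.5 to 10000 nM. DOHH2 were incubated 120 h and RS4;11 72 h, both plated at 5000 cells/well in RPMI-1640 plus 10% FBS.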

RS4;11 cells = assay: Cell proliferation assay (MTS), RS4;11 cells, 72 h; assay type: cell-based; details: Homo sapiens, RS4-11, 72 h
How it was run: as §1

| IC50 (RS4;11 cells) | Compound | IC50 (DOHH2 cells) |
| --- | --- | --- |
| 1 nM | CN1CCN(C[C@H]2COc3cc(S(=O)(=O)NC(=O)c4ccc(N5CCN(CC6=C(c7ccc(Cl)cc7)CC(C)(C)CC6)CC5)cc4Oc4cnc5[nH]ccc5c4)cc([N+](=O)[O-])c3N2)CC1 [Example 2-1, (S)-2-((1H-pyrrolo[2,3-b]pyridin-5-yl)oxy)-4-(4-((4′-chloro-5,5-dimethyl-3,4,5,6-tetrahydro-[1,1′-biphenyl]-2-yl)methyl)piperazin-1-yl)-N-((3-((4-methylpiperazin-1-yl)methyl)-5-nitro-3,4-dihydro-2H-benzo[b][1,4]oxazin-7-yl)sulfonyl)benzamide] | 6 nM |
| 2 nM | CC1(C)CCC(CN2CCN(c3ccc(C(=O)NS(=O)(=O)c4cc5c(c([N+](=O)[O-])c4)N[C@H](CCN4CCOCC4)CO5)c(Oc4cnc5[nH]ccc5c4)c3)CC2)=C(c2ccc(Cl)cc2)C1 [Example 2-2] | 8 nM |
| 3 nM | CC1(C)CCC(CN2CCN(c3ccc(C(=O)NS(=O)(=O)c4cc5c(c([N+](=O)[O-])c4)N[C@H](CN4CCOCC4)CO5)c(Oc4cnc5[nH]ccc5c4)c3)CC2)=C(c2ccc(Cl)cc2)C1 [Example 2-5, (R)-2-((1H-pyrrolo[2,3-b]pyridin-5-yl)oxy)-4-(4-((4′-chloro-5,5-dimethyl-3,4,5,6-tetra-hydro-[1,1′-biphenyl]-2-yl)methyl)piperazin-1-yl)-N-((3-(morpholinomethyl)-5-nitro-3,4-dihydro-2H-benzo[b][1,4]oxazin-7-yl)sulfonyl)benzamide] | 12 nM |
| 2 nM | CC1(C)CCC(CN2CCN(c3ccc(C(=O)NS(=O)(=O)c4cc5c(c([N+](=O)[O-])c4)N[C@H](CN4CCC(C)(O)CC4)CO5)c(Oc4cnc5[nH]ccc5c4)c3)CC2)=C(c2ccc(Cl)cc2)C1 [Example 2-6, (R)-2-((1H-pyrrolo[2,3-b]pyridin-5-yl)oxy)-4-(4-((4′-chloro-5,5-dimethyl-3,4,5,6-tetra-hydro-[1,1′-biphenyl]-2-yl)methyl)piperazin-1-yl)-N-((3-((4-hydroxy-4-methylpiperdin-1-yl)methyl)-5-nitro-3,4-dihydro-2H-benzo[b][1,4]oxazin-7-yl)sulfonyl)benzamide] | 18 nM |
| 72 nM | CN(C)C[C@@H]1COc2cc(S(=O)(=O)NC(=O)c3ccc(N4CCN(CC5=C(c6ccc(Cl)cc6)CC(C)(C)CC5)CC4)cc3Oc3cnc4[nH]ccc4c3)cc([N+](=O)[O-])c2N1 [Example 2-7, (R)-2-((1H-pyrrolo[2,3-b]pyridin-5-yl)oxy)-4-(4-((4′-chloro-5,5-dimethyl-3,4,5,6-tetra-hydro-[1,1′-biphenyl]-2-yl)methyl)piperazin-1-yl)-N-((3-((dimethylamino)methyl)-5-nitro-3,4-dihydro-2H-benzo[b][1,4]oxazin-7-yl)sulfonyl)benzamide] | 95 nM |
| 14 nM | CC1(C)CCC(CN2CCN(c3ccc(C(=O)NS(=O)(=O)c4cc5c(c([N+](=O)[O-])c4)N[C@H](CO)CO5)c(Oc4cnc5[nH]ccc5c4)c3)CC2)=C(c2ccc(Cl)cc2)C1 [Example 2-8, (R)-2-((1H-pyrrolo[2,3-b]pyridin-5-yl)oxy)-4-(4-((4′-chloro-5,5-dimethyl-3,4,5,6-tetra-hydro-[1,1′-biphenyl]-2-yl)methyl)piperazin-1-yl)-N-((3-(hydroxymethyl)-5-nitro-3,4-dihydro-2H-benzo[b][1,4]oxazin-7-yl)sulfonyl)benzamide] | 67 nM |
| 10 nM | CN1CCN(CC[C@H]2COc3cc(S(=O)(=O)NC(=O)c4ccc(N5CCN(CC6=C(c7ccc(Cl)cc7)CC(C)(C)CC6)CC5)cc4Oc4cnc5[nH]ccc5c4)cc([N+](=O)[O-])c3N2)CC1 [Example 2-9, (S)-2-((1H-pyrrolo[2,3-b]pyridin-5-yl)oxy)-4-(4-((4′-chloro-5,5-dimethyl-3,4,5,6-tetra-hydro-[1,1′-biphenyl]-2-yl)methyl)piperazin-1-yl)-N-((3-(2-(4-methylpiperazin-1-yl)eth-yl)-5-nitro-3,4-dihydro-2H-benzo[b][1,4]oxazin-7-yl)sulfonyl)benzamide] | 33 nM |
| 9 nM | CC1(C)CCC(CN2CCN(c3ccc(C(=O)NS(=O)(=O)c4cc5c(c([N+](=O)[O-])c4)N[C@@H](CCN4CCOCC4)CO5)c(Oc4cnc5[nH]ccc5c4)c3)CC2)=C(c2ccc(Cl)cc2)C1 [Example 2-10, (S)-2-((1H-pyrrolo[2,3-b]pyridin-5-yl)oxy)-4-(4-((4′-chloro-5,5-dimethyl-3,4,5,6-tetra-hydro-[1,1′-biphenyl]-2-yl)methyl)piperazin-1-yl)-N-((3-(2-morpholinoethyl)-5-nitro-3,4-dihydro-2H-benzo[b][1,4]oxazin-7-yl)sulfonyl)benzamide] | 28 nM |
| 12 nM | CC1(C)CCC(CN2CCN(c3ccc(C(=O)NS(=O)(=O)c4cc5c(c([N+](=O)[O-])c4)N[C@@H](CCN4CCC(C)(O)CC4)CO5)c(Oc4cnc5[nH]ccc5c4)c3)CC2)=C(c2ccc(Cl)cc2)C1 [Example 2-11, (S)-2-((1H-pyrrolo[2,3-b]pyridin-5-yl)oxy)-4-(4-((4′-chloro-5,5-dimethyl-3,4,5,6-tetra-hydro-[1,1′-biphenyl]-2-yl)methyl)piperazin-1-yl)-N-((3-(2-(4-hydroxy-4-methylpiper-idin-1-yl)ethyl)-5-nitro-3,4-dihydro-2H-benzo[b][1,4]oxazin-7-yl)sulfonyl)benzamide] | 53 nM |
| 1 nM | CN(C)CC[C@H]1COc2cc(S(=O)(=O)NC(=O)c3ccc(N4CCN(CC5=C(c6ccc(Cl)cc6)CC(C)(C)CC5)CC4)cc3Oc3cnc4[nH]ccc4c3)cc([N+](=O)[O-])c2N1 [Example 2-12, (S)-2-((1H-pyrrolo[2,3-b]pyridin-5-yl)oxy)-4-(4-((4′-chloro-5,5-dimethyl-3,4,5,6-tetra-hydro-[1,1′-biphenyl]-2-yl)methyl)piperazin-1-yl)-N-((3-(2-(dimethylamino)ethyl)-5-nitro-3,4-dihydro-2H-benzo[b][1,4]oxazin-7-yl)sulfonyl)benzamide] | 19 nM |
| 9 nM | CC1(C)CCC(CN2CCN(c3ccc(C(=O)NS(=O)(=O)c4cc5c(c([N+](=O)[O-])c4)N[C@@H](CCO)CO5)c(Oc4cnc5[nH]ccc5c4)c3)CC2)=C(c2ccc(Cl)cc2)C1 [Example 2-13, (S)-2-((1H-pyrrolo[2,3-b]pyridin-5-yl)oxy)-4-(4-((4′-chloro-5,5-dimethyl-3,4,5,6-tetra-hydro-[1,1′-biphenyl]-2-yl)methyl)piperazin-1-yl)-N-((3-(2-hydroxyethyl)-5-nitro-3,4-dihydro-2H-benzo[b][1,4]oxazin-7-yl)sulfonyl)benzamide] | 33 nM |
| 4 nM | CN1CCN(CC[C@@H]2COc3cc(S(=O)(=O)NC(=O)c4ccc(N5CCN(CC6=C(c7ccc(Cl)cc7)CC(C)(C)CC6)CC5)cc4Oc4cnc5[nH]ccc5c4)cc([N+](=O)[O-])c3N2)CC1 [Example 2-14, (R)-2-((1H-pyrrolo[2,3-b]pyridin-5-yl)oxy)-4-(4-((4′-chloro-5,5-dimethyl-3,4,5,6-tetra-hydro-[1,1′-biphenyl]-2-yl)methyl)piperazin-1-yl)-N-((3-(2-(4-methylpiperazin-1-yl)eth-yl)-5-nitro-3,4-dihydro-2H-benzo[b][1,4]oxazin-7-yl)sulfonyl)benzamide] | 15 nM |
| 20 nM | CC1(C)CCC(CN2CCN(c3ccc(C(=O)NS(=O)(=O)c4cc5c(c([N+](=O)[O-])c4)N[C@H](CCN4CCC(C)(O)CC4)CO5)c(Oc4cnc5[nH]ccc5c4)c3)CC2)=C(c2ccc(Cl)cc2)C1 [Example 2-15, (R)-2-((1H-pyrrolo[2,3-b]pyridin-5-yl)oxy)-4-(4-((4′-chloro-5,5-dimethyl-3,4,5,6-tetra-hydro-[1,1′-biphenyl]-2-yl)methyl)piperazin-1-yl)-N-((3-(2-(4-hydroxy-4-methylpiper-idin-1-yl)ethyl)-5-nitro-3,4-dihydro-2H-benzo[b][1,4]oxazin-7-yl)sulfonyl)benzamide] | 50 nM |
| 4 nM | CN(C)CC[C@@H]1COc2cc(S(=O)(=O)NC(=O)c3ccc(N4CCN(CC5=C(c6ccc(Cl)cc6)CC(C)(C)CC5)CC4)cc3Oc3cnc4[nH]ccc4c3)cc([N+](=O)[O-])c2N1 [Example 2-16, (R)-2-((1H-pyrrolo[2,3-b]pyridin-5-yl)oxy)-4-(4-((4′-chloro-5,5-dimethyl-3,4,5,6-tetra-hydro-[1,1′-biphenyl]-2-yl)methyl)piperazin-1-yl)-N-((3-(2-(dimethylamino)ethyl)-5-nitro-3,4-dihydro-2H-benzo[b][1,4]oxazin-7-yl)sulfonyl)benzamide] | 34 nM |
| 8 nM | CC1(C)CCC(CN2CCN(c3ccc(C(=O)NS(=O)(=O)c4cc5c(c([N+](=O)[O-])c4)N[C@H](CCO)CO5)c(Oc4cnc5[nH]ccc5c4)c3)CC2)=C(c2ccc(Cl)cc2)C1 [Example 2-17, (R)-2-((1H-pyrrolo[2,3-b]pyridin-5-yl)oxy)-4-(4-((4′-chloro-5,5-dimethyl-3,4,5,6-tetra-hydro-[1,1′-biphenyl]-2-yl)methyl)piperazin-1-yl)-N-((3-(2-hydroxyethyl)-5-nitro-3,4-dihydro-2H-benzo[b][1,4]oxazin-7-yl)sulfo-nyl)benzamide] | 20 nM |
| 4 nM | CC1(C)CCC(CN2CCN(c3ccc(C(=O)NS(=O)(=O)c4cc5c(c([N+](=O)[O-])c4)N[C@@H](CN4CCOCC4)CO5)c(Oc4cnc5[nH]ccc5c4)c3)CC2)=C(c2ccc(Cl)cc2)C1 [Example 2-18, (S)-2-((1H-pyrrolo[2,3-b]pyridin-5-yl)oxy)-4-(4-((4′-chloro-5,5-dimethyl-3,4,5,6-tetra-hydro-[1,1′-biphenyl]-2-yl)methyl)piperazin-1-yl)-N-((3-(morpholinomethyl)-5-nitro-3,4-dihydro-2H-benzo[b][1,4]oxazin-7-yl)sulfonyl)benzamide] | 9 nM |
